Reference: US20250188030A1, “Biphenyl and Phenylpyridine Compounds” (Pfizer Inc., priority 2023, published 2025)
Where two headings read alike, the source gives them in different places.

Legend:
KAT2A = KAT2A (Homo sapiens (Human), UniProt Q92830); experiment: KAT2A acetyltransferase biochemical assay (RapidFire mass spectrometry, AcCoA to CoA)
H3K9AC (HT1080 cells) = experiment: H3K9AC Sandwich ELISA Assay in HT1080 cells (KAT2A primary cell-based screening assay); set-up: species or system Human
How it was run: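 Acetylated H3K9 quantified by luminescent sandwich ELISA (total H3 capture, H3K9ac detection) on HCl lysates of HT1080 cells. Cells had 24 h compound exposure at 37 °C, top concentration 10 µM, 10-point 3-fold series, 0.1% DMSO; IC50 from four-parameter fitting.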

KAT2B = KAT2B (Homo sapiens (Human), UniProt Q92831); experiment: KAT2B acetyltransferase biochemical assay (RapidFire mass spectrometry, AcCoA to CoA)
MM.1S cells = experiment: MM1.S 10 Day Proliferation Assay (CellTiter-Glo); format: cell-based, Human
How it was run: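 MM.1S cells, 500/well in ultra-low-attachment plates, were pre-incubated 16 h, then exposed to a 10-point 1:3 dilution series (top 10 μM final, 0.1% DMSO) for 10 days at 37 °C, with compound-containing medium refreshed at day 5. Viability was read by CellTiter-Glo luminescence; IC50 came from four-parameter fit.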

[1] = read-out: KAT2A Ki at 1 μM AcCoA, 5 μM H3 1-21 peptide, 0.5 nM KAT2A, 90-minute reaction
[2] = Homo sapiens, HT-1080, H3K9AC sandwich ELISA
[3] = read-out: KAT2B Ki at 1 μM AcCoA, 1 μM AcCoA, 5 μM H3 1-21 peptide, 0.5 nM KAT2B, 90-minute reaction

KAT2B, sequence (Q92831 2-832): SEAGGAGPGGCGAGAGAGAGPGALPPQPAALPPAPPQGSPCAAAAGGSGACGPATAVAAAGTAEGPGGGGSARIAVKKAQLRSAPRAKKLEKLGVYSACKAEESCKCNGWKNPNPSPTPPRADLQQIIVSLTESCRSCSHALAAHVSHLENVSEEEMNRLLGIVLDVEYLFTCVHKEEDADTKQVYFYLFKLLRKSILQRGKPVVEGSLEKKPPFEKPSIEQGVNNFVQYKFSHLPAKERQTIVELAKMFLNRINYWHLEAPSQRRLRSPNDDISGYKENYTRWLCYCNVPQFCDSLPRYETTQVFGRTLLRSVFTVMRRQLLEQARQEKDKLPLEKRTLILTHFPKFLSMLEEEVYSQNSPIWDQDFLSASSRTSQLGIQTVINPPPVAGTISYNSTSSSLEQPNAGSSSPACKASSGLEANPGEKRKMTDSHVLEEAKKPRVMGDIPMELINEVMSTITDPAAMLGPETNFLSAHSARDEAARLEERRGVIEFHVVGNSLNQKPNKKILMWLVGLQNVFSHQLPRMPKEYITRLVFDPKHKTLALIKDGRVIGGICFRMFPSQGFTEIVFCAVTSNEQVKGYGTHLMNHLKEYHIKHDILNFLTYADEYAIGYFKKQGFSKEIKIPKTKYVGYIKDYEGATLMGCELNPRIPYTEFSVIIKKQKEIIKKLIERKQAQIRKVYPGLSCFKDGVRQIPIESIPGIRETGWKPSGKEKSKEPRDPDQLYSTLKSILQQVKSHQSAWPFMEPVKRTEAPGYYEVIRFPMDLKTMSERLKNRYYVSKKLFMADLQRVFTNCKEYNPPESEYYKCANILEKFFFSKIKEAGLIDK
KAT2A, sequence (Q92830 whole entry): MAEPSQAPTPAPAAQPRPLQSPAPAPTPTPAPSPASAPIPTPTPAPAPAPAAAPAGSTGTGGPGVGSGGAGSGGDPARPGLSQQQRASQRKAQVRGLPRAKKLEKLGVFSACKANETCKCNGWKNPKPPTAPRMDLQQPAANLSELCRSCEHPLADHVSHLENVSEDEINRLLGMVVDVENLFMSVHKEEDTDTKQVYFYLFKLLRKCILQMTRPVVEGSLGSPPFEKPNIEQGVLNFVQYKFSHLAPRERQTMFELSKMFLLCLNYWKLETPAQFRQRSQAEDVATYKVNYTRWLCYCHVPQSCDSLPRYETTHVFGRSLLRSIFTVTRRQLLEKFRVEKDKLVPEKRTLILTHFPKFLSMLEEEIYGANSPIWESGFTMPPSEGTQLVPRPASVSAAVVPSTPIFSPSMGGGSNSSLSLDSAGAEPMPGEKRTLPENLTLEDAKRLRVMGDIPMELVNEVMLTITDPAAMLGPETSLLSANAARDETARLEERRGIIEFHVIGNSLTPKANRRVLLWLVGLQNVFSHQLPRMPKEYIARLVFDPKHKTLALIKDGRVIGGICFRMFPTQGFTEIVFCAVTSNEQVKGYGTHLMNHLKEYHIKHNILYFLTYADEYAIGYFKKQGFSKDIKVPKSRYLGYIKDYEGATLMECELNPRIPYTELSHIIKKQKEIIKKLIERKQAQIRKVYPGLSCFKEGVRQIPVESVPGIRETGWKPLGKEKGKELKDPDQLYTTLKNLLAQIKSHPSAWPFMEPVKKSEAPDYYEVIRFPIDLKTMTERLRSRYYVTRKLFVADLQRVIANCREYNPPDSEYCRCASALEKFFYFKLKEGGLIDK

SMILES	Ki (KAT2A; [1]) [nM]	IC50 (H3K9AC (HT1080 cells); [2]) [nM]	Ki (KAT2B; [3]) [nM]	IC50 (MM.1S cells; Homo sapiens, MM1.S, 240 h) [nM]	Ki (KAT2A; KAT2A Ki at 1 μM AcCoA, 5 μM H3 1-21 peptide, 0.5 nM KAT2A, 90-minute reaction) [nM]	Ki (KAT2B) [nM]	IC50 (H3K9AC (HT1080 cells); H3K9AC sandwich ELISA) [nM]	IC50 (MM.1S cells) [nM]
CC(C)(C(=O)NS(=O)(=O)N1CCC1)c1ccc(O[C@@H]2CC[C@@H](NC(=O)[C@@]3(F)CNC4(CCC4)C3)C2)c(-c2cccc(F)c2C2CCC2)c1 [Example C3, (7S)-N-{(1R,3R)-3-[(5-{1-[(azetidin-1-ylsulfonyl)amino]-2-methyl-1-oxopropan-2-yl}-2′-cyclobutyl-3′-fluorobiphenyl-2-yl)oxy]cyclopentyl}-7-fluoro-5-azaspiro[3.4]octane-7-carboxamide]	0.05	3.84	0.06	6.22	–	–	–	–
CC1(C)C[C@](F)(C(=O)N[C@@H]2CC[C@@H](Oc3ccc(C(C)(C)C(=O)NS(C)(=O)=O)cc3-c3cccc(F)c3C3CCC3)C2)CN1 (single isomer, unassigned) [Example C6]	2.75	89.7	14.8	–	–	–	–	–
CC[C@](C)(C(=O)O)c1ccc(O[C@@H]2CC[C@@H](NC(=O)[C@]3(F)CNC4(CCC4)C3)C2)c(-c2cccc(F)c2C2CCC2)c1 (single isomer, unassigned) [Example A12]	1.78	–	–	–	–	–	28.8	368
CCS(=O)(=O)NC(=O)C(C)(C)c1ccc(O[C@@H]2CC[C@@H](NC(=O)[C@@]3(F)CNC(C)(C)C3)C2)c(-c2cccc(F)c2C2CCC2)c1 (single isomer, unassigned) [Example B14]	1.83	–	–	–	–	–	49.1	553
CCc1c(F)cccc1-c1cc(CC(=O)NS(=O)(=O)C(C)C)ccc1O[C@@H]1CC[C@@H](NC(=O)[C@@]2(F)CNC3(CCC3)C2)C1 [Example C58, (7S)-N-[(1R,3R)-3-({2′-ethyl-3′-fluoro-5-[2-oxo-2-(propane-2-sulfonamido)ethyl][1,1′-biphenyl]-2-yl}oxy)cyclopentyl]-7-fluoro-5-azaspiro[3.4]octane-7-carboxamide]	0.11	3.4	–	8.1	–	–	–	–
CC(C)c1ccccc1-c1cc(CC(=O)NS(=O)(=O)C2(C)CC2)ccc1O[C@@H]1CC[C@@H](NC(=O)[C@@]2(F)CNC3(CCC3)C2)C1 [Example C54, (7S)-7-fluoro-N-[(1R,3R)-3-({5-[2-(1-methylcyclopropane-1-sulfonamido)-2-oxoethyl]-2′-(propan-2-yl)[1,1′-biphenyl]-2-yl}oxy)cyclopentyl]-5-azaspiro[3.4]octane-7-carboxamide]	0.04	0.9	–	1.4	–	–	–	–
CC1(C)CNCC(F)(C(=O)N[C@@H]2CC[C@@H](Oc3ccc(C(=O)O)cc3-c3cccc(F)c3C3CCC3)C2)C1 (single isomer, unassigned) [Example A38]	0.02	–	–	18.3	–	–	4	–
CC(C)(C(=O)NS(=O)(=O)N1CC(F)C1)c1ccc(O[C@@H]2CC[C@@H](NC(=O)[C@@]3(F)CNC4(CCC4)C3)C2)c(-c2cccc(F)c2C2CCC2)c1 (single isomer, unassigned) [Example B5]	0.09	9.93	–	13.3	–	–	–	–
CC(C)c1ccccc1-c1cc(CC(=O)NS(=O)(=O)C2(C)CC2)ccc1O[C@@H]1CC[C@@H](NC(=O)[C@@]2(F)CNC3(CCCC3)C2)C1 (single isomer, unassigned) [Example C61]	0.07	0.2	–	0.7	–	–	–	–
CCS(=O)(=O)NC(=O)C(C)(C)c1ccc(O[C@@H]2CC[C@@H](NC(=O)[C@@]3(F)CNCC(C)(C)C3)C2)c(-c2cccc(F)c2C2CCC2)c1 (single isomer, unassigned) [Example B22]	0.09	2.38	–	2.51	–	–	–	–
CC(C)S(=O)(=O)NC(=O)C(C)(C)c1cnc(O[C@@H]2CC[C@@H](NC(=O)[C@@]3(F)CNC4(CCC4)C3)C2)c(-c2cccc(F)c2C2CCC2)c1 [Example C65, (7S)-N-[(1R,3R)-3-({3-(2-cyclobutyl-3-fluorophenyl)-5-[2-methyl-1-oxo-1-(propane-2-sulfonamido)propan-2-yl]pyridin-2-yl}oxy)cyclopentyl]-7-fluoro-5-azaspiro[3.4]octane-7-carboxamide]	0.16	3.8	–	31.8	–	–	–	–
CC1(C)CNC[C@](F)(C(=O)N[C@@H]2CC[C@@H](Oc3ccc(C(C)(C)C(=O)NS(C)(=O)=O)cc3-c3cccc(F)c3C3CCC3)C2)C1 (single isomer, unassigned) [Example C37]	0.06	3	–	11	–	–	–	–

Next, values leading:

Ki (KAT2A; [1]) [nM]	IC50 (H3K9AC (HT1080 cells); [2]) [nM]	Ki (KAT2B; [3]) [nM]	IC50 (MM.1S cells; Homo sapiens, MM1.S, 240 h) [nM]	Ki (KAT2A; KAT2A Ki at 1 μM AcCoA, 5 μM H3 1-21 peptide, 0.5 nM KAT2A, 90-minute reaction) [nM]	Ki (KAT2B) [nM]	IC50 (H3K9AC (HT1080 cells); H3K9AC sandwich ELISA) [nM]	IC50 (MM.1S cells) [nM]	SMILES
9.48	39.2	22.2	193	–	–	–	–	CN1CC(C)(C)C[C@H]1C(=O)N[C@@H]1CC[C@@H](Oc2ccc(CC(=O)O)cc2-c2cccc(F)c2C2CCC2)C1 [Example D10, [2′-cyclobutyl-3′-fluoro-6-({(1R,3R)-3-[(1,4,4-trimethyl-L-prolyl)amino]cyclopentyl}oxy)[1,1′-biphenyl]-3-yl]acetic acid]
0.03	0.84	0.02	3.82	–	–	–	–	CN1CC(C)(C)C[C@H]1C(=O)N[C@@H]1CC[C@@H](Oc2ccc(CC(=O)NS(=O)(=O)N(C)C)cc2-c2cccc(F)c2C2CCC2)C1 [Example E3, N-{(1R,3R)-3-[(2′-cyclobutyl-5-{2-[(dimethylsulfamoyl)amino]-2-oxoethyl}-3′-fluoro[1,1′-biphenyl]-2-yl)oxy]cyclopentyl}-1,4,4-trimethyl-L-prolinamide]
33	90	115	–	–	–	–	–	CC1(C)C[C@H](C(=O)N[C@@H]2CC[C@@H](Oc3cccc(C(=O)O)c3-c3cccc(F)c3C3CCC3)C2)CN1 (atropisomer, axis not shown) [Example H9, (1ψ)-2′-cyclobutyl-6-{[(1R,3R)-3-{[(3ξ)-5,5-dimethylpyrrolidine-3-carbonyl]amino}cyclopentyl]oxy}-3′-fluoro[1,1′-biphenyl]-2-carboxylic acid]
12.8	30.4	58.8	–	–	–	–	–	CC(C)c1ccccc1-c1cc(C(=O)O)ccc1O[C@@H]1CC[C@@H](NC(=O)[C@@H]2CC(C)(C)CN2C)C1 [Example D5, 2′-(propan-2-yl)-6-({(1R,3R)-3-[(1,4,4-trimethyl-L-prolyl)amino]cyclopentyl}oxy)[1,1′-biphenyl]-3-carboxylic acid]
0.14	10.2	0.62	–	–	–	–	–	CCn1cc(-c2ccc(O[C@@H]3CC[C@@H](NC(=O)[C@@]4(F)CNC5(CCC5)C4)C3)c(-c3cccc(F)c3C3CCC3)c2)c(C(=O)O)n1 (single isomer, unassigned) [Example J13]
–	30.6	–	–	70.3	46.8	–	–	CN1CC2(CCOCC2)C[C@H]1C(=O)N[C@@H]1CC[C@@H](Oc2ccc(C(=O)O)cc2-c2ccccc2C2CCC2)C1 (single isomer, unassigned) [Example D2]
–	–	63.6	679	–	–	84.2	–	CN1CC(C)(C)C[C@H]1C(=O)N[C@@H]1CC[C@@H](Oc2cccc(CC(=O)O)c2-c2ccccc2C2CCC2)C1 (atropisomer, axis not shown) [Example H6, [(1ψ)-2′-cyclobutyl-6-({(1R,3R)-3-[(1,4,4-trimethyl-L-prolyl)amino]cyclopentyl}oxy)[1,1′-biphenyl]-2-yl]acetic acid]
6.29	63.8	–	359	–	–	–	–	CN1CC2(CCCC2)C[C@H]1C(=O)N[C@@H]1CC[C@@H](Oc2cccc(C(=O)NS(C)(=O)=O)c2-c2cccc(F)c2C2CCC2)C1 (atropisomer, axis not shown) [Example I10, (3ξ)-N-[(1R,3R)-3-({(1ψ)-2′-cyclobutyl-3′-fluoro-6-[(methanesulfonyl)carbamoyl][1,1′-biphenyl]-2-yl}oxy)cyclopentyl]-2-methyl-2-azaspiro[4.4]nonane-3-carboxamide]
91.9	98.5	–	497	–	–	–	–	CC(C)c1ccccc1-c1cc(CC(=O)O)ccc1O[C@@H]1CC[C@@H](NC(=O)[C@@H]2CC(C)(C)CN2C)C1 [Example D11, [2′-(propan-2-yl)-6-({(1R,3R)-3-[(1,4,4-trimethyl-L-prolyl)amino]cyclopentyl}oxy)[1,1′-biphenyl]-3-yl]acetic acid]
0.31	4.83	–	11.9	–	–	–	–	[2H]C([2H])([2H])N1CC(C)(C)C[C@H]1C(=O)N[C@@H]1CC[C@@H](Oc2ccc(C(C)(C)C(=O)NS(C)(=O)=O)cc2-c2cccc(F)c2C2CCC2)C1 [Example E5]
0.08	–	–	34.2	–	–	4.97	–	CC(C)n1cc(-c2ccc(O[C@@H]3CC[C@@H](NC(=O)[C@@]4(F)CNC5(CCC5)C4)C3)c(-c3cccc(F)c3C3CCC3)c2)c(C(=O)O)n1 (single isomer, unassigned) [Example J16]
0.16	7.01	–	56	–	–	–	–	Cc1cc(NS(C)(=O)=O)n(-c2ccc(O[C@@H]3CC[C@@H](NC(=O)[C@@H]4CC(C)(C)CN4C)C3)c(-c3cccc(F)c3C3CCC3)c2)n1 [Example L1, N-[(1R,3R)-3-({2′-cyclobutyl-3′-fluoro-5-[5-(methanesulfonamido)-3-methyl-1H-pyrazol-1-yl][1,1′-biphenyl]-2-yl}oxy)cyclopentyl]-1,4,4-trimethyl-L-prolinamide]
